O=C(CCc1ccc(O)cc1)c1c(O)cc(O)cc1O
solubility (mole fraction)
Conditions | 288.2 K | 298.2 K | 308.2 K | 318.2 K | 328.2 K
in 1,4-dioxane | 0.0211 | 0.0249 | 0.029 | 0.0331 | 0.0384
in ethanol | 0.0345 | 0.0373 | 0.0399 | 0.0421 | 0.0447
in ethyl acetate | 0.0266 | 0.0283 | 0.0309 | 0.0343 | 0.037
in isopropanol | 0.0351 | 0.0374 | 0.039 | 0.0411 | 0.0429
in methanol | 0.0245 | 0.0259 | 0.0275 | 0.0299 | 0.0317
in n-butanol | 0.0336 | 0.035 | 0.0362 | 0.0378 | 0.0394
in n-butyl acetate | 0.0258 | 0.0281 | 0.0305 | 0.0323 | 0.0346
in n-hexanol | 0.0289 | 0.0313 | 0.0332 | 0.0347 | 0.0366
in n-pentanol | 0.0301 | 0.0324 | 0.034 | 0.0357 | 0.0378
in n-propanol | 0.03 | 0.0318 | 0.0336 | 0.0358 | 0.0382
in sec-butanol | 0.0101 | 0.014 | 0.0175 | 0.0217 | 0.0244
in water | 3.46e-06 | 5.76e-06 | 1.12e-05 | 1.7e-05 | 2.7e-05
